Among the data in ChEMBL document CHEMBL1201862, “PubChem BioAssay data set” (2004) are AC50, IC50 and EC50 values, retold here.

Broadly, the AC50 is the midpoint of the concentration-response curve, whichever way the signal moves. As usually defined, the EC50 is the concentration needed to bring the measured effect to its halfway point.

Assay [1] is described as follows: P. falciparum Dd2 growth inhibitors, dose response, SYBR Green, cherry-picked samples (AID 1159567). The assay is classed as functional, cell-based.
Assay [2] in a line: HepG2 cell cytotoxicity, dose response, cytotoxicity control, cherry-picked samples (AID 1159577). The assay is classed as functional, cell-based.
The next assay concerns the target Genome polyprotein (dengue virus type 2, UniProt P29990). Nature of the assay: Dengue-2 NS5 methyltransferase inhibitors, primary screen, biochemical, confirmation dose response (AID 588689). The assay is classed as functional.
The target in assay [3] is T1, Hepatocyte nuclear factor 4-alpha (Homo sapiens, UniProt P41235).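 Further: biochemical luminescence-based dose-response counterscreen measuring inhibition of HNF4 dimerization, run alongside a screen for blockers of ABHD5–perilipin-5 interaction; split luciferase complementation of HNF4 fusion proteins in cell lysate measuring dimerization.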
T1 sequence (P41235 whole entry): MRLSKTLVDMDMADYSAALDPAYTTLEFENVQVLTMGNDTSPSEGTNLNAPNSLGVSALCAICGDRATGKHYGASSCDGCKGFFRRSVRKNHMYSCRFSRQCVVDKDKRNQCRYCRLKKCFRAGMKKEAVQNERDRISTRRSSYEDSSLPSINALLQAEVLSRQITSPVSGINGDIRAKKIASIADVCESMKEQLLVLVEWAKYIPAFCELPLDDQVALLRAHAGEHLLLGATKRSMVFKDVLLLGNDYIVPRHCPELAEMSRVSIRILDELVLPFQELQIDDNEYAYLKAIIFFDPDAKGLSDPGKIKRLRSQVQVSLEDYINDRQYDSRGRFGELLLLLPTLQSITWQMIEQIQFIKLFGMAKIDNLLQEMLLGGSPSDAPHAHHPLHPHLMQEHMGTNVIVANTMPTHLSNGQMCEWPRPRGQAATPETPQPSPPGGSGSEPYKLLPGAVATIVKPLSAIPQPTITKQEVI
In kind it is functional, cell-based.

The nature of assay [4]: NIH-3T3 fibroblast cytotoxicity, dose response, cytotoxicity control, cell-based, fluorescence, Alamar Blue, secondary assay (AID 2327).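 Further: NIH-3T3 mouse fibroblasts cultured with fluconazole at 8 µg/mL.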 In kind it is functional.
Assay [5] concerns the target T2, Heat shock factor protein 1 (Mus musculus, UniProt P38532).
T2 sequence (P38532 whole entry): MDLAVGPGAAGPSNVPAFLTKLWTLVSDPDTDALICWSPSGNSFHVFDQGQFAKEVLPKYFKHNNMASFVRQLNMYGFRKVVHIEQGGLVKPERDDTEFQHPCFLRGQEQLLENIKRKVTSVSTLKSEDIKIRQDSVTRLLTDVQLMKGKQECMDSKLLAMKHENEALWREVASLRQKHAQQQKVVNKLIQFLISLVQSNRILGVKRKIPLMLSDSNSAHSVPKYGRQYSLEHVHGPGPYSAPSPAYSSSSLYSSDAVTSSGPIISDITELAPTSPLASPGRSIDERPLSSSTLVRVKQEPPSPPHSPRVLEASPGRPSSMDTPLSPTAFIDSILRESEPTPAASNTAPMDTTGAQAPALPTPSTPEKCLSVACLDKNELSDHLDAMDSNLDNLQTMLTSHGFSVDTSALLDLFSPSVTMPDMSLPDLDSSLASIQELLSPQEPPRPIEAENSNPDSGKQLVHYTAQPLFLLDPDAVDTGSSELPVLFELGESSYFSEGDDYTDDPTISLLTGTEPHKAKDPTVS
Nature of the assay: inhibition of MG132-induced HSE-luciferase signal, confirmation, cell-based, NIH3T3, luminescence, dose retest (AID 2382).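 Further: NIH3T3 fibroblasts with HSF1-driven luciferase reporter stressed by proteasome inhibitor MG132; luminescence from HSF1-driven luciferase expression after 8 hours of MG132 stress.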 In kind it is functional.

Assay [6] is described as follows: C. albicans growth with fluconazole, confirmation, fluorescence, retest (AID 2467). The assay is classed as functional, cell-based.
The nature of assay [7]: inhibitors of intracellular T. cruzi replication, confirmation, NIH3T3 host cells, beta-gal luminescence (AID 2044).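 Further: intracellular parasites grown in NIH/3T3 mouse fibroblasts as host cells; luminescent beta-galactosidase reporter signal from transgenic T. cruzi replicating inside host cells; inhibitors lower the luminescence signal.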 In kind it is functional, cell-based.
Assay [8] in a line: cytotoxicity toward NIH3T3 fibroblasts, dose response, counter-screen, cell-based, ATP luminescence, mouse fibroblasts (AID 2010).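 Further: cells exposed to compound for about 90 hours before reading.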 In kind it is functional.
Assay [9] can be described thus: Shn3 3'UTR reporter inhibitors, dose response, cell-based, Clone20 osteoblasts, firefly luciferase, cherry-picked (AID 624132).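 Further: firefly luciferase luminescence from reporter carrying the Shn3 3'UTR in osteoblasts.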 In kind it is functional.
Assay [10] in a line: HepG2 cell cytotoxicity, dose response, cytotoxicity control for Shn3 inhibitor project, CellTiter-Glo, cherry-picked (AID 624134). In kind it is functional, cell-based. In general terms: In ATP-based viability assays light output follows the ATP content of the culture.
Assay [11] is described as follows: control 3'UTR Renilla luciferase suppression, dose response, counter-screen for Shn3 inhibitor project, cell-based, Clone20-Shn3RL, cherry-picked (AID 624133). The assay is classed as functional. (The purpose of a counterscreen is to sort out artefacts and off-target activity.)
A further assay addresses Paired box protein Pax-8 (Homo sapiens, UniProt Q06710). Nature of the assay: inhibitors of PAX8-driven TPO luciferase reporter, dose response, RMG-I cells, cherry-pick (AID 687027).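 Further: luciferase reporter driven by Pax8 target thyroperoxidase promoter measured by SteadyGlo luminescence.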 In kind it is functional, cell-based. (A reporter such as luciferase makes a cellular process visible.)
Assay [12] is described as follows: non-specific cell cytotoxicity, dose response, cytotoxicity control for PAX8 inhibitor project, plate reader, dry powder samples (AID 743021). The assay is classed as functional, cell-based.
Assay [13] can be described thus: P. falciparum 3D7-ScDHODH growth inhibitors, dose response, SYBR Green, dry powder samples (AID 1159570).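 Further: parasite growth measured after 72 hours of compound exposure.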 The assay is classed as functional, cell-based.
Assay [14] in a line: HepG2 cell cytotoxicity, dose response, cytotoxicity control, plate reader, dry powder samples (AID 1159569).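 Further: inhibitor potency with signal falling toward the positive control level.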 In kind it is functional, cell-based.
The nature of assay [15]: P. falciparum Dd2 growth inhibitors, dose response, SYBR Green, dry powder samples (AID 1159566).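 Further: potency for growth inhibition with lower SYBR green DNA signal.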 The assay is classed as functional, cell-based.
Assay [16] can be described thus: P. falciparum ATP4 D1247Y mutant growth inhibitors, dose response, NITD609-resistant line, SYBR Green, dry powder (AID 1159571).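 Further: parasites synchronized at ring stage by sorbitol before testing.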 The assay is classed as functional, cell-based.
Assay [17] can be described thus: growth suppression of PTEN-null colon cells, dose response, cell-based, HCT116 PTEN knockout (AID 1047).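 Further: HCT116 colon tumor cells with PTEN knocked out; cells exposed to compound for 60 hours before readout; potency for loss of cell viability measured by luminescence.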 In kind it is functional.
Assay [18] in a line: growth suppression of beta-catenin-knockout colon cells, dose response, cell-based, HCT116, human colon tumor (AID 1045).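 Further: HCT116 colon tumor cells with beta catenin knocked out; cells exposed to compound for 60 hours.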 The assay is classed as functional.
The target of assay [19] is T3, Carboxy-terminal domain RNA polymerase II polypeptide A small phosphatase 1 (Homo sapiens, UniProt Q9GZU7).
T3 sequence (Q9GZU7 whole entry): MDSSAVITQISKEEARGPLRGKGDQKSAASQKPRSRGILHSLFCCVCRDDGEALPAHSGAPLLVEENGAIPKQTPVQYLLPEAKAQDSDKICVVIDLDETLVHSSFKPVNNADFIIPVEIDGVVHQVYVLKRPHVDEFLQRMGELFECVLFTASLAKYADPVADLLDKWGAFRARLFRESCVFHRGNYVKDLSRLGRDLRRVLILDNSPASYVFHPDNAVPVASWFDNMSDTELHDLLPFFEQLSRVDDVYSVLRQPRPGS
Nature of the assay: inhibitors of CTDSP1, concentration-response testing, biochemical assay, absorbance-based, actives from ultra-high-throughput screening (AID 540297). The assay is classed as functional.

In assay [20] the target is T4, Low molecular weight phosphotyrosine protein phosphatase (Homo sapiens, UniProt P24666).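 Further: Dose-response confirmation assay measuring inhibition of LMPTP enzyme activity by fluorescence intensity read-out.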
T4 sequence (P24666 whole entry): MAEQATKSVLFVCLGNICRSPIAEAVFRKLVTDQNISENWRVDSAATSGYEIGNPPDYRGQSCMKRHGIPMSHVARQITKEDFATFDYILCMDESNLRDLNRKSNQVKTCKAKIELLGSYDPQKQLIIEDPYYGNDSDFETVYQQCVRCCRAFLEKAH
In kind it is functional. As to conditions: read-out: IC50_Mean.

SMILES strings stand for the structures. Activity calls are given as the source filed them.

Paired box protein Pax-8, sequence (Q06710 whole entry): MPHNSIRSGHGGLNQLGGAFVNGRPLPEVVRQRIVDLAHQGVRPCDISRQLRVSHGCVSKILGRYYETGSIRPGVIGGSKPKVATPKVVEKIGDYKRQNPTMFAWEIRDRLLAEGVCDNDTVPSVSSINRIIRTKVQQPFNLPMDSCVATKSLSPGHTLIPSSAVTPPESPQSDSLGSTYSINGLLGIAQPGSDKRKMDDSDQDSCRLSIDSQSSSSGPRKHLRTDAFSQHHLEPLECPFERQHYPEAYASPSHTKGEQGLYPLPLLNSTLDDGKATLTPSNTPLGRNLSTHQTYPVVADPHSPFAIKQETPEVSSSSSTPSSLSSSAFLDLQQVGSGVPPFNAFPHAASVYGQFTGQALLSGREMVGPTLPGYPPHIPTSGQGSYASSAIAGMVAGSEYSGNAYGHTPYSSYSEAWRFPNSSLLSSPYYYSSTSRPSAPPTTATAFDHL
Genome polyprotein, sequence (P29990 2492-3391 limits assumed): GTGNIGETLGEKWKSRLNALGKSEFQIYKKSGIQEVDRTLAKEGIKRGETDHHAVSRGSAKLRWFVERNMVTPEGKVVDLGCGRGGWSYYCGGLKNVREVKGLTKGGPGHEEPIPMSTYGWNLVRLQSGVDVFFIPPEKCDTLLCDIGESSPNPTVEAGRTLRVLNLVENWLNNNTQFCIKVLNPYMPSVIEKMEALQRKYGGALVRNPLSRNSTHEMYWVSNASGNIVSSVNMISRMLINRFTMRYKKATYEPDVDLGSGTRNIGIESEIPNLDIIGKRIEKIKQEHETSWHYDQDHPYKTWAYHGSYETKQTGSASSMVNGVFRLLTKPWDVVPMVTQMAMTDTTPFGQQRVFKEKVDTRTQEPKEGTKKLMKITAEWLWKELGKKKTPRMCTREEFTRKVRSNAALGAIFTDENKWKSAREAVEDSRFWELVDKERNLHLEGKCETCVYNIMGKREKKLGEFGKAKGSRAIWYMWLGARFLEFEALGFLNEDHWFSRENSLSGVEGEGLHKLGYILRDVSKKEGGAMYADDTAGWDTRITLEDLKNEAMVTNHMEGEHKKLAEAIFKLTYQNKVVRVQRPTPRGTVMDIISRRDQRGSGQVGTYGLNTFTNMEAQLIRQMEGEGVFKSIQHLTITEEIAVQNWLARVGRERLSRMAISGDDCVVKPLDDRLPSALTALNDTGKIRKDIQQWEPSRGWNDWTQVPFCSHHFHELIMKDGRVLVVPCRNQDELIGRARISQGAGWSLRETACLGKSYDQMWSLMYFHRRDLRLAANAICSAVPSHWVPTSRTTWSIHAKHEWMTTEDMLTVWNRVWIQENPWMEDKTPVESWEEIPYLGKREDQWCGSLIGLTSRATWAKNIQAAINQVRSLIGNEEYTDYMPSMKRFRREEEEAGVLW

Consider `Cc1cccc(-c2ccc([C@@H]3[C@H](CO)N4CCCCN(S(=O)(=O)c5ccccc5C)C[C@@H]34)cc2)c1`, for which the AC50 in assay [1] was 0.845 µM (active); in [2], 9.3 µM (active).

Consider `Cc1ccc(C(=O)C2=C(O)C(=O)OC2c2ccc(Cl)cc2)cc1` (stereo not given), for which the figures for the IC50 (at Genome polyprotein; in assay [3]) were 60.8 µM (active) and 8.81 µM (active), respectively.

Take `Cc1ccc(S(=O)(=O)c2ncccc2[N+](=O)[O-])cc1`: the EC50 in assay [4] is 4.37 µM (inconclusive); in [5], 3.92 µM (active); in assay [6] it was 2.73 µM (active); in assay [7], 2.96 µM (active); in assay [8], 2.85 µM (active). The AC50 in assay [9] is 1.91 µM (active); in [10], 30.2 µM (active); in [11] it was 6.47 µM (active); on Paired box protein Pax-8, 8.34 µM (active); in assay [12], 23.6 µM (active).

Regarding `CCN(CC)CCC(C)OC(c1ccccc1)c1ccccc1` (stereo not given), the IC50 in assay [3] is 20.7 µM (inactive).

As for `O=C(Nc1ccccc1)N1CCCCN2[C@H](CO)[C@H](c3ccc(C#Cc4ccccc4)cc3)[C@@H]2C1`, the AC50 in assay [13] is 0.0378 µM (active); in assay [14] it was > 100 µM (inactive); in [1], < 0.3 µM (active); in assay [15] it was 0.0425 µM (active); in assay [16], 0.0386 µM (active).

On to `O=C(N/N=C/c1cccc([N+](=O)[O-])c1)c1cc2c(ccc3ccccc32)o1`, for which the values for the concentration for a half-maximal effect (EC50) in assay [17] and in assay [18] were 52.6 µM (active) and 148 µM (active), respectively. Moreover, the figures for the IC50 in assay [19] and in [20] were 3.91 µM (active) and 4.06 µM (active), respectively.

As for `Cc1cccc(C)c1NC(=O)C(c1ccccc1F)n1c(=O)c(-c2ccco2)nc2ccccc21` (stereo not given), in assay [3], the IC50 was 2.48 µM (active).
